Results taken from ChEMBL document CHEMBL5154799, “Discovery of a Novel Stilbene Derivative as a Microtubule Targeting Agent Capable of Inducing Cell Ferroptosis” (J Med Chem, 2022).
Active and inactive are the calls of the source. The calls are words filed in the database; no cut-off is given here.

What was measured:
Type in all cases: functional, cell-based
A549 [1] = assay: Antiproliferative activity against human A549 cells assessed as cell viability incubated for 48 hrs by MTT assay; conditions: A549, 48 h
HeLa = assay: Antiproliferative activity against human HeLa cells assessed as cell viability incubated for 48 hrs by MTT assay
MCF7 = assay: Antiproliferative activity against human MCF7 cells assessed as cell viability incubated for 48 hrs by MTT assay; conditions: MCF7, 48 h
HCT-8 = assay: Antiproliferative activity against human HCT-8 cells assessed as cell viability incubated for 48 hrs by MTT assay; conditions: HCT-8, 48 h
A2780 = assay: Antiproliferative activity against human A2780 cells assessed as cell viability incubated for 48 hrs by MTT assay; conditions: A2780, 48 h
A549 [2] = assay: Induction of apoptosis in human A549 cells assessed as cell viability pretreated with ferroptosis inhibitor ferrostatin-1 for 24 hrs followed by incubation with compound at 100 nM and measured after 48 hrs by CCK-8 assay
A549 [3] = assay: Induction of apoptosis in human A549 cells assessed as cell viability pretreated with autophagy inhibitor 3-methyladenine for 24 hrs followed by incubation with compound at 100 nM and measured after 48 hrs by CCK-8 assay
A549 [4] = assay: Induction of apoptosis in human A549 cells assessed as cell viability pretreated with caspase inhibitor Z-VAD-FMK for 24 hrs followed by incubation with compound at 100 nM and measured after 48 hrs by CCK-8 assay
A549 [5] = assay: Induction of apoptosis in human A549 cells assessed as cell viability pretreated with necroptosis inhibitor necrostatin-I for 24 hrs followed by incubation with compound at 100 nM and measured after 48 hrs by CCK-8 assay
A549 [6] = assay: Induction of apoptosis in human A549 cells assessed as cell viability pretreated with ferroptosis inhibitor desferoxamine for 24 hrs followed by incubation with compound at 100 nM and measured after 48 hrs by CCK-8 assay

| Compound | IC50 (A549 [1]) [µM] | IC50 (HeLa) [µM] | IC50 (MCF7) [µM] | IC50 (HCT-8) [µM] | IC50 (A2780) [µM] | Activity (A549 [2]) | Activity (A549 [3]) | Activity (A549 [4]) | Activity (A549 [5]) | Activity (A549 [6]) |
| --- | --- | --- | --- | --- | --- | --- | --- | --- | --- | --- |
| C=C(c1ccc2c(c1)C=CC(C)(C)O2)c1ccc(OC)cc1NC(=O)CO | 0.04 | 0.1 | 0.39 | 0.22 | 0.11 |  |  |  |  |  |
| CCNCC(=O)Nc1cc(OC)ccc1C(=O)c1ccc2c(c1)C=CC(C)(C)O2 | 1.3 | 3.11 | 6.31 | 3.99 | 2.07 |  |  |  |  |  |
| COc1ccc(C(=O)c2ccc(OC)c3c2C=CC(C)(C)O3)c(NC(=O)CBr)c1 | 2.46 | 3.68 | 3.29 | 4.36 | 2.15 |  |  |  |  |  |
| COc1ccc(C(=O)c2ccc3c(c2)C=CC(C)(C)O3)c(NC(=O)CBr)c1 | 1.98 | 3.05 | 2.88 | 3.26 | 1.87 |  |  |  |  |  |
| C=C(c1ccc2c(c1)C=CC(C)(C)O2)c1ccc(OC)cc1NC(=O)CNCC | 1.18 | 1.58 | 3.37 | 2.22 | 1.87 |  |  |  |  |  |
| C=C(c1cc(OC)c(OC)c(OC)c1)c1ccc(OC)cc1NC(=O)CNCC | 0.26 | 0.43 | 0.86 | 0.59 | 0.45 |  |  |  |  |  |
| C=C(c1ccc(OC)cc1NC(=O)CN(C)C)c1ccc(OC)c2c1OC(C)(C)C=C2 | 0.27 | 0.9 | 0.5 | 0.69 | 0.42 |  |  |  |  |  |
| C=C(c1ccc2c(c1)C=CC(C)(C)O2)c1ccc(OC)cc1NC(=O)CNC | 0.2 | 0.41 | 0.72 | 0.59 | 0.32 |  |  |  |  |  |
| C=C(c1ccc(OC)cc1NC(=O)CN)c1ccc(OC)c2c1OC(C)(C)C=C2 | 0.05 | 0.12 | 0.22 | 0.19 | 0.08 |  |  |  |  |  |
| C=C(c1cc(OC)c(OC)c(OC)c1)c1ccc(OC)c(O)c1NC(=O)COCC | 0.88 | 0.69 | 1.05 | 0.91 | 1.23 |  |  |  |  |  |
| CNCC(=O)Nc1cc(OC)ccc1C(=O)c1ccc(OC)c2c1C=CC(C)(C)O2 | 1.37 | 2.17 | 3.04 | 3.46 | 1.59 |  |  |  |  |  |
| COc1ccc(C(=O)c2ccc3c(c2)C=CC(C)(C)O3)c(NC(=O)CN(C)C)c1 | 1.16 | 1.26 | 3.56 | 2.42 | 1.02 |  |  |  |  |  |
| CCNCC(=O)Nc1cc(OC)ccc1C(=O)c1ccc(OC)c2c1OC(C)(C)C=C2 | 1.05 | 2.69 | 5.2 | 3.69 | 1.98 |  |  |  |  |  |
| C=C(c1cc(OC)c(OC)c(OC)c1)c1ccc(OC)cc1NC(=O)CO | 0.02 | 0.03 | 0.11 | 0.04 | 0.03 |  |  |  |  |  |
| C=C(c1ccc2c(c1)C=CC(C)(C)O2)c1ccc(OC)cc1NC(=O)CN | 0.06 | 0.16 | 0.42 | 0.22 | 0.14 |  |  |  |  |  |
| C=C(c1cc(OC)c(OC)c(OC)c1)c1ccc(OC)cc1NC(=O)CN | 0.04 | 0.07 | 0.19 | 0.06 | 0.03 |  |  |  |  |  |
| C=C(c1ccc(OC)cc1NC(=O)CNC)c1ccc(OC)c2c1C=CC(C)(C)O2 | 0.32 | 0.5 | 1.01 | 0.98 | 0.72 |  |  |  |  |  |
| C=C(c1ccc(OC)cc1NC(=O)CNCC)c1ccc(OC)c2c1C=CC(C)(C)O2 | 1.87 | 2.59 | 2.92 | 3.05 | 2.01 |  |  |  |  |  |
| C=C(c1cc(OC)c(OC)c(OC)c1)c1ccc(OC)cc1NC(=O)CNC | 0.1 | 0.14 | 0.24 | 0.19 | 0.14 |  |  |  |  |  |
| C=C(c1ccc(OC)cc1NC(=O)CNCC)c1ccc(OC)c2c1OC(C)(C)C=C2 | 0.97 | 1.09 | 2.1 | 1.38 | 1.03 |  |  |  |  |  |
| C=C(c1cc(OC)c(OC)c(OC)c1)c1ccc(OC)c(O)c1NC(=O)CN(C)C | 0.05 | 0.12 | 0.21 | 0.11 | 0.09 |  |  |  |  |  |
| COc1ccc(C(=O)c2ccc(OC)c3c2C=CC(C)(C)O3)c(NC(=O)CN)c1 | 0.42 | 0.1 | 1.25 | 1.05 | 0.89 |  |  |  |  |  |
| CCNCC(=O)Nc1cc(OC)ccc1C(=O)c1ccc(OC)c2c1C=CC(C)(C)O2 | 2.31 | 4.27 | 7.23 | 7.89 | 4.09 |  |  |  |  |  |

| Compound | IC50 (A549 [1]) [µM] | IC50 (HeLa) [µM] | IC50 (MCF7) [µM] | IC50 (HCT-8) [µM] | IC50 (A2780) [µM] | Activity (A549 [2]) | Activity (A549 [3]) | Activity (A549 [4]) | Activity (A549 [5]) | Activity (A549 [6]) |
| --- | --- | --- | --- | --- | --- | --- | --- | --- | --- | --- |
| COc1ccc(/C=C/C(=O)c2ccc(OC)c3c2OC(C)(C)C=C3)cc1 [MILLEPACHINE] | 3.95 | 6.03 | 6.98 | 5.02 | 3.09 |  |  |  |  |  |
| COc1ccc(C(=O)c2cc(OC)c(OC)c(OC)c2)c(NC(=O)CN(C)C)c1 | 0.59 | 0.47 | 0.79 | 0.79 | 0.58 |  |  |  |  |  |
| C=C(c1cc(OC)c(OC)c(OC)c1)c1ccc(OC)cc1NC(=O)CN(C)C | 0.13 | 0.37 | 0.39 | 0.34 | 0.24 |  |  |  |  |  |
| COc1ccc(C(=O)c2ccc3c(c2)C=CC(C)(C)O3)c(NC(=O)CO)c1 | 0.09 | 0.24 | 0.2 | 0.25 | 0.13 |  |  |  |  |  |
| CNCC(=O)Nc1cc(OC)ccc1C(=O)c1cc(OC)c(OC)c(OC)c1 | 0.61 | 0.69 | 0.55 | 0.78 | 0.58 |  |  |  |  |  |
| C=C(c1ccc2c(c1)C=CC(C)(C)O2)c1ccc(OC)cc1NC(=O)CN(C)C | 0.43 | 0.64 | 0.94 | 0.69 | 0.51 |  |  |  |  |  |
| COc1ccc(C(=O)c2ccc(OC)c3c2C=CC(C)(C)O3)c(NC(=O)CN(C)C)c1 | 1.85 | 3.62 | 6.53 | 5.66 | 3.99 |  |  |  |  |  |
| C=C(c1ccc(OC)cc1NC(=O)CO)c1ccc(OC)c2c1C=CC(C)(C)O2 | 0.07 | 0.1 | 0.59 | 0.47 | 0.28 |  |  |  |  |  |
| CNCC(=O)Nc1cc(OC)ccc1C(=O)c1ccc(OC)c2c1OC(C)(C)C=C2 | 0.62 | 0.87 | 0.82 | 0.74 | 0.62 |  |  |  |  |  |
| COc1ccc(C(=O)c2ccc(OC)c3c2OC(C)(C)C=C3)c(NC(=O)CN(C)C)c1 | 0.89 | 1.05 | 2.68 | 1.59 | 0.79 |  |  |  |  |  |
| CCNCC(=O)Nc1cc(OC)ccc1C(=O)c1cc(OC)c(OC)c(OC)c1 | 0.75 | 2.1 | 1.05 | 1.56 | 0.95 |  |  |  |  |  |
| CNCC(=O)Nc1cc(OC)ccc1C(=O)c1ccc2c(c1)C=CC(C)(C)O2 | 0.8 | 0.97 | 1.21 | 1.01 | 0.85 |  |  |  |  |  |
| COc1ccc(C(=O)c2ccc(OC)c3c2OC(C)(C)C=C3)c(NC(=O)CBr)c1 | 1.21 | 2.14 | 2.36 | 3.25 | 0.98 |  |  |  |  |  |
| COc1ccc(C(=O)c2ccc(OC)c3c2C=CC(C)(C)O3)c(NC(=O)CO)c1 | 0.1 | 0.31 | 0.94 | 0.63 | 0.42 |  |  |  |  |  |
| COc1ccc(C(C)c2cc(OC)c(OC)c(OC)c2)c(NC(=O)CO)c1O (stereo not given) | 0.18 | 0.39 | 0.79 | 0.59 | 0.28 |  |  |  |  |  |
| COc1ccc(C(=O)c2ccc(OC)c3c2OC(C)(C)C=C3)c(NC(=O)CN)c1 | 0.27 | 0.41 | 0.41 | 0.37 | 0.38 |  |  |  |  |  |
| C=C(c1ccc(OC)cc1NC(=O)CN(C)C)c1ccc(OC)c2c1C=CC(C)(C)O2 | 0.55 | 0.79 | 2.58 | 1.92 | 0.67 |  |  |  |  |  |
| C=C(c1ccc(OC)cc1NC(=O)CNC)c1ccc(OC)c2c1OC(C)(C)C=C2 | 0.15 | 0.31 | 0.4 | 0.32 | 0.21 |  |  |  |  |  |
| COc1ccc(C(=O)c2cc(OC)c(OC)c(OC)c2)c(NC(=O)CN)c1 | 0.22 | 0.13 | 0.27 | 0.33 | 0.19 |  |  |  |  |  |
| COc1ccc(C(=O)c2ccc3c(c2)C=CC(C)(C)O3)c(NC(=O)CN)c1 | 0.31 | 0.58 | 0.68 | 0.49 | 0.59 |  |  |  |  |  |
| C=C(c1ccc(OC)cc1NC(=O)CN)c1ccc(OC)c2c1C=CC(C)(C)O2 | 0.09 | 0.2 | 0.78 | 0.52 | 0.4 |  |  |  |  |  |
| C=C(c1cc(OC)c(OC)c(OC)c1)c1ccc(OC)c(O)c1NC(C)=O | 0.08 | 0.09 | 0.27 | 0.34 | 0.17 | Active | Active | Active | Active | Active |
